According to patent US6013665A, “Method for enhancing the absorption and transport of lipid soluble compounds using structured glycerides” (Abbott Laboratories, priority 1997, dated 2000):
Like-named read-outs stand apart in the source and are kept apart here.

Key:
[1] = cited from earlier work
[2] = rat, in vivo
Method: (§1) The results set forth in FIGS. 1-4 are statistically significant at p<0.01 (see *). A two way analysis of variance model was employed for each treatment, lipid type and their interaction effects in the model were used to compare the area under each curve. Models were extended to included contrast statements comparing the physical mix and the structured triglyceride within each treatment group.
(§2) This experiment was conducted to determine if a structured glyceride consisting of a co-randomized MCT/fish oil would enhance the absorption of lipophilic compounds such as vitamin E (tocopherol) and retinol (vitamin A) using a lymph fistula rat model based upon a procedure described by Fujimoto et al., "Effect of Ischemia-Reperfusion on Lipid Digestion and Absorption in Rat Intestine", Am. J. Physiol., 260: G595-G602 (1991), the entire teaching of which is hereby incorporated by reference. This model was designed to represent fat absorption mode of the healthy intestinal tract (i.e., not compromised through disease or ischemic event). The lymph fistula rat model is extremely accurate in measuring and quantitating lipid absorption.
(§3) The physical mix (Part A)and structured triglyceride component (Part B) of Example 1 were used. […].
(§4) Male Sprague Dawley rats weighing between 280 and 330 grams were all fed a normal Purina Rat Chow for one week. Rats were fasted overnight prior to surgery and under anesthesia, a laparotomy was performed, the intestinal lymph duct was cannulated according to the procedure of Tso et al., "The Absorption of Lipid and Lipoprotein Synthesis", Lipid Research Methodology, Chapter 5: 191-216 (1984) Alan R. Liss, Inc., N.Y., N.Y, the entire teaching of which is hereby incorportated by reference. […] A silicon infusion tube (1.6 mm OD) was placed in the stomach for infusion of saline, structured lipid/lipophilic compound or emulsified physical mix/lipophilic compound. The fundic incision was closed by a purse string suture. The animals were allowed to recover for 24 hours before experimental oil/lipophilic compound infusion began.
(§5) Animals were randomly assigned to two groups in this non-injury model. […].
(§6) Lymph was collected in pre-cooled tubes beginning hourly for eight (8) hours after initiation of lipid infusion. At the end of the lipid infusion, the animals were sacrificed by exsanguination.
(§7) Radioactivity was measured in an aqueous miscible scintillant (Poly-Fluor, Packard, Downers Grove, Ill.). Samples were counted for 10 minutes in a liquid scintillation spectrophotometer (LKB Model 1209, Pharmacia, Inc.). Samples were corrected for quenching by reference to a series of ^14 C and ^3 H standards that were progressively quenched.
This experiment was conducted in a manner similar to Example 2 except that the ischemic/reperfusion injury model was used. This model was used to simulate the lipid malabsorption conditions associated with diseases such as Short Bowel Syndrome, Crohn's disease and the like. Animals were divided into two groups and given the physical mix (Group A) or the structured triglyceride component (Group B) of Example 2.

[3] = parameters: species or system Male Sprague Dawley rats; settings: rat, in vivo
Method: as §1, §2, §3, §4, §5, §6, §7
Lymph lipids were extracted and the methyl ester derivatives of the fatty acids were analyzed using a Hewlett Packard Gas Chromatograph, Model 5890A with a capillary column packed with 10% SP-2330 on 80/100 Supelcoport (Supelco, Inc., Bellefonte, Pa.).

[4] = cited from earlier work; remark: listed apart in the source
[5] = in vivo; cited from earlier work
[6] = in vivo; cited from earlier work; remark: listed apart in the source
[7] = rat, in vivo; cited from earlier work

CCCCCCCC/C=C\CCCCCCCC(=O)O [oleic acid]
absorption into the lymphatic system from an emulsion ([1]; rats with bile diversion, emulsion): well absorbed into the lymphatic system

CC1=C(/C=C/C(C)=C/C=C/C(C)=C/CO)C(C)(C)CCC1 [retinol]
amount of retinol to the lymphatic circulation, structured triglyceride component vs physical mixture, end of study (FIG. 3) [2]: more than twice the amount | lymphatic retinol absorption, structured triglyceride component vs physical mixture, initial 3 hour period (FIG. 3) [2]: about equal | retinol absorption, structured triglyceride component over physical mix, after about 3 hours (FIG. 3) [2]: enhancement in the retinol absorption over the physical mix | lymph tocopherol and retinol output with structured glyceride component versus physical mix [3]: increased rapidly and maintained a significantly higher output | lymphatic retinol absorption, structured triglyceride component vs physical mix (FIG. 1) [3]: increased the lymphatic absorption of retinol over the entire 8 hour study period

CCCCCCCC/C=C\CCCCCCCC(=O)OCC(COC(=O)CCCCCCC/C=C\CCCCCCCC)OC(=O)CCCCCCC/C=C\CCCCCCCC [triolein]
amount of lipid transported to the lymph ([4]; lymph fistula rat, same amount of fatty acid infused as triolein or phosphatidylcholine with vitamin E): similar

phosphatidylcholine
amount of lipid transported to the lymph ([4]; rat, in vivo): similar

α-tocopherol
higher lymph output of the lipophilic compound with structured triglyceride component compared to the corresponding physical mix [2]: ≥ 30% | lymphatic tocopherol absorption, structured triglyceride vs physical mix, after about 2 hours (FIG. 4) [2]: significantly enhanced level of lymphatic tocopherol absorption | tocopherol absorption, structured triglyceride component vs physical mix, initial 2 hour period (FIG. 4) [2]: essentially equal | intestinal absorption of vitamin E with MCT [5]: enhancing effect of MCT on intestinal absorption of vitamin E | higher lymph output of the lipophilic compound with structured triglyceride compared to the corresponding physical mix [3]: ≥ 30% | lymph tocopherol and retinol output with structured glyceride component versus physical mix [3]: increased rapidly and maintained a significantly higher output | lymphatic tocopherol absorption, structured glyceride component vs physical mix (FIG. 2) [3]: enhances the lymphatic absorption of tocopherol over the entire 8 hour study period | absorption into the lymphatic system from an emulsion ([1]; rat, in vivo): poorly absorbed from the emulsion | α-tocopherol absorption by rat small intestine with polyunsaturated fatty acids in bile salt micelles [6]: depress α-tocopherol absorption | transport of vitamin E into lymph, phosphatidylcholine vs triglyceride infusion ([4]; rat, in vivo): significantly reduced | gastrointestinal absorption of lecithin-dispersed aqueous preparations of vitamin E with MCT [7]: significantly enhanced the absorption | lymphatic absorption of vitamin E from lecithin-dispersed aqueous preparations [7]: increase the lymphatic absorption of vitamin E
